Assay results from patent US20170158636A1, “FUNCTIONALISED AND SUBSTITUTED CARBAZOLES AS ANTI-CANCER AGENTS” (Novogen Ltd., priority 2014, published 2017).

Tested on: Skeletal myosin II
Test: Actin-activated myosin II ATPase activity
Type: biochemical
Conditions: 50 μM, absence of Tpm3.1
Description: FIG. 4: Effect of anti-tropomyosin compounds on actin-activated myosin II ATPase activity. Skeletal myosin II (30-60 nM) was incubated with 1% (v/v) DMSO or 50 μM of Blebbistatin, TR100 or compound 1001 for 5 min prior to mixing with 3 μM F-actin. Reactions were initiated with 1 mM ATP and inorganic phosphate release was detected spectrophotometrically. Data represents mean±SEM, for n=2-4 independent repeats. **P-value, 0.001<0.01.
To exclude an off-target activity, the impact of compound 1001 and TR100 (another small molecule with anti-tropomyosin activity) on myosin II ATPase activity was evaluated in the absence of Tpm3.1. The small molecule blebbistatin was included as a positive control known to inhibit myosin II ATPase activity. Blebbistatin acts by binding to the myosin-ADP-Pi complex and slowing the release of inorganic phosphate (Kovacs et al., 2004). Myosin II was pre-incubated with 50 μM of blebbistatin, TR100 or 1001 prior to mixing with F-actin. […] Compound 1001 had no effect on myosin ATPase activity at equivalent concentrations to that of TR100 (FIG. 4).

| SMILES | inhibition of actin-activated myosin ATPase activity [%] | effect on actin-activated myosin II ATPase activity |
| --- | --- | --- |
| CCCCCCCCNC(=O)/C(C#N)=C/c1c(C)n(CCCN(C)C)c2ccccc12 [TR100] | ~70 |  |
| Cc1ccc2c(c1)C(=O)C1(O)CCN(c3ccccc3)C1=N2 (centres unmarked) [blebbistatin] |  | strongly inhibited |
